The values that follow come from US4172782A, “Recovery of catalyst” (Sumitomo Chemical Company, Limited, priority 1977, dated 1979).

A short description of this series: Solubility of tetra-n-butylammonium bromide in aqueous sodium hydroxide solutions. Format: physicochemical. The settings on record: aqueous NaOH, 20° C. On the procedure:
The organic quaternary ammonium salt is soluble both in water and in the oil layer. Its solubility in an aqueous alkali solution varies with the concentration of the alkali. The solubilities of tetra-n-butylammonium bromide, as an example of organic quaternary ammonium salts, in aqueous sodium hydroxide solutions were measured at 20° C. and the results obtained were as shown in Table 1.

Take `CCCC[N+](CCCC)(CCCC)CCCC.[Br-]` [tetra-n-butylammonium bromide]: the “Solubility of tetra-n-butylammonium bromide” value was found to be 27 % by wt (1% by wt.); 11 % by wt (2% by wt.); 2.4 % by wt (5% by wt.); 1.2 % by wt (10% by wt.); 0.07 % by wt (15% by wt.).
